Where “and” joins values, the source holds several entries; their conditions need not be identical. Equal values may be shown once. After the bases stand the sugars from the 5' end (letter, count) and the backbone: PS all phosphorothioate, else s phosphorothioate and o phosphodiester by linkage. Methylation of C is not given here. e = 2'-O-(2-methoxyethyl) (MOE); k = constrained ethyl (cEt); d = 2'-deoxy (DNA)

In the first data set the target is IRF4. To be noted: ASO, H929, 0.00067 µM.
Consider “CAGTTGTAAATGAGTC (sugars kdddddddddkekeke, PS)”, for which the target mRNA inhibition came to 9%.

The data set is the same for the next values; noted with them: ASO, H929, 0.002 µM.
For the sequence “CAGTTGTAAATGAGTC (sugars kdddddddddkekeke, PS)”, the target mRNA inhibition worked out at 26%.

Still in this data set, the particulars now being: ASO, H929, 0.00667 µM.
As to “CAGTTGTAAATGAGTC (sugars kdddddddddkekeke, PS)”, the target mRNA inhibition stood at 39%.

Staying with this data set, now noted: ASO, H929, 0.02 µM.
For “CAGTTGTAAATGAGTC (sugars kdddddddddkekeke, PS)”, the target mRNA inhibition is 48%.

Still in this data set, the particulars now being: ASO, H929, 0.04 µM.
On to “CAGTTGTAAATGAGTC (sugars kdddddddddkekeke, PS)”, for which the target mRNA inhibition is 27%.

Still in this data set, the particulars now being: ASO, KMS11, 0.2 µM.
Regarding “CAGTTGTAAATGAGTC (sugars kdddddddddkekeke, PS)”, the target mRNA inhibition is 62% and 74%.

Staying with this data set, now noted: ASO, MM.1R, 0.0625 µM.
With CTGTTACCGATGCTTC (sugars k3 d10 k3, PS), the target mRNA inhibition was 18%.

The same data set, now with this note: ASO, MM.1R, 0.074 µM.
With “CAGTTGTAAATGAGTC (sugars kdddddddddkekeke, PS)”, the target mRNA inhibition was 20%. Still for that read-out and setting: next, “GCATTTTATCATCCGA (sugars e1 k2 d9 k2 e2, PS)”: 18%.

The same data set, now with this note: ASO, MM.1R, 0.222 µM.
On to “CAGTTGTAAATGAGTC (sugars kdddddddddkekeke, PS)”, for which the target mRNA inhibition was determined as 36%. Still for that read-out and setting: the value for “GCATTTTATCATCCGA (sugars e1 k2 d9 k2 e2, PS)” was 34%.

Staying with this data set, now noted: ASO, MM.1R, 0.25 µM.
Consider CTGTTACCGATGCTTC (sugars k3 d10 k3, PS), for which the target mRNA inhibition turned out to be 36%.

The data set is the same for the next values; noted with them: ASO, MM.1R, 0.666 µM.
As for “CAGTTGTAAATGAGTC (sugars kdddddddddkekeke, PS)”, the target mRNA inhibition was 59%.

Regarding “GCATTTTATCATCCGA (sugars e1 k2 d9 k2 e2, PS)”, the target mRNA inhibition turned out to be 57%.

The same data set, now with this note: ASO, MM.1R, 1 µM.
Consider CTGTTACCGATGCTTC (sugars k3 d10 k3, PS), for which the target mRNA inhibition is 56% and 55%. As to CTCTTCAGGCACCCAC (sugars k3 d10 k3, PS), the target mRNA inhibition was 13%. Turning to “TAGTATGAGAAACGGC (sugars kdddddddddkekeke, PS)”, the target mRNA inhibition is 32%. Consider “CAGTGATGTCAGGTTT (sugars kdddddddddkekeke, PS)”, for which the target mRNA inhibition came to 48%. The same measure, in the same setting: next, AAAGAGCTGGTAGGTC (sugars k3 d10 k3, PS): -35%. Take CACTCTTACTCCGCTG (sugars k3 d10 k3, PS): the target mRNA inhibition is -12%. The same measure, in the same setting: next, GTAGGTAAGATCTCCA (sugars k3 d10 k3, PS): 22%. The same measure, in the same setting: next, CCGATGCTTCAAGACA (sugars k3 d10 k3, PS): 13%. On the same count and under the same terms, next, AGAACGCACGGACGAA (sugars k3 d10 k3, PS): 1%; “AAGCATTTTATCATCC (sugars kkdddddddddekeke, PS)”: 25%; TATAACGGTGTTTCAG (sugars k3 d10 k3, PS): 36%. With GTTGCCGAGATATAAA (sugars k3 d10 k3, PS), the target mRNA inhibition stood at 13%. For the sequence “CAGTTGTAAATGAGTC (sugars kdddddddddkekeke, PS)”, the target mRNA inhibition worked out at 62%.

“CTATAGTGTTCCAGGA (sugars kkdddddddddkekek, PS)”: the target mRNA inhibition amounted to 43%. Still for that read-out and setting: the value for TATCCTGTAGTATGAG (sugars k3 d10 k3, PS) was 42%; that for “GCATTTTATCATCCGA (sugars e1 k2 d9 k2 e2, PS)” was 61%.

In the case of ATCATCCGAAAAGACT (sugars k3 d10 k3, PS), the target mRNA inhibition is 4%. On to TGACACAGGAGCCGCT (sugars k3 d10 k3, PS), for which the target mRNA inhibition amounted to 15%. On to TACCGATGCTTCAAGA (sugars k3 d10 k3, PS), for which the target mRNA inhibition was -3%. The same measure, in the same setting: next, ATATGGCTAAACCTGG (sugars k3 d10 k3, PS): 18%. CATGGGACATTGGTAC (sugars k3 d10 k3, PS): the target mRNA inhibition was found to be 18%. On the same count and under the same terms, next, “TTATATACTGGTTGGT (sugars k2 d9 e3 k2, PS)”: 40%; “GGCACATCAATGTTTT (sugars kkddddddddddkeke, PS)”: 9%. Still for that read-out and setting: the value for GCAGTGATGTCAGGTT (sugars k3 d10 k3, PS) was 39%. Same read-out and setting: the value for “CTGCTTGAGGTTTTCC (sugars kkdddddddddekeke, PS)” was 49%; that for “ATTATATACTGGTTGG (sugars kkdddddddddkekek, PS)” was 52%. On to “TGGGATTATATACTGG (sugars kkdddddddddekeke, PS)”, for which the target mRNA inhibition was found to be 63%.

As to ACAGTGACTTGCATCC (sugars k3 d10 k3, PS), the target mRNA inhibition is 34%.

The data set is the same for the next values; noted with them: ASO, MM.1R, 2 µM.
As for “CAGTTGTAAATGAGTC (sugars kdddddddddkekeke, PS)”, the target mRNA inhibition is 79%. Take “GCATTTTATCATCCGA (sugars e1 k2 d9 k2 e2, PS)”: the target mRNA inhibition stood at 83%.

The data set is the same for the next values; noted with them: ASO, MM.1R, 4 µM.
On to CTGTTACCGATGCTTC (sugars k3 d10 k3, PS), for which the target mRNA inhibition came out at 82%.

Staying with this data set, now noted: ASO, SK-MEL-28, 4 µM.
For GCTCACAGATTAATAG (sugars k3 d10 k3, PS), the target mRNA inhibition was 16%. Same read-out and setting: the value for CTTCTTTATAGTAGGT (sugars k3 d10 k3, PS) was 20%; that for CTCCCAGAGTTGTTCC (sugars k3 d10 k3, PS) was 34%. On the same count and under the same terms, the value for GGCTGAGATAGGAAGC (sugars k3 d10 k3, PS) was 36%; that for ATAATATAGTTGTCTG (sugars k3 d10 k3, PS) was 35%. As to GGTGAGCACCGCGCCG (sugars k3 d10 k3, PS), the target mRNA inhibition was -8%. The same measure, in the same setting: the value for TACGACAACTTTCCTG (sugars k3 d10 k3, PS) was 41%. Same read-out and setting: the value for ACATTACTGAGATATC (sugars k3 d10 k3, PS) was 16%.

For ACGCAAGTCTGAATTT (sugars k3 d10 k3, PS), the target mRNA inhibition was 65%. On the same count and under the same terms, next, GTCAGCTCCATCCTGC (sugars k3 d10 k3, PS): 52%; GCCCGGAGGAAGGGCG (sugars k3 d10 k3, PS): -6%.

As for AACAGAGACGCGGTGA (sugars k3 d10 k3, PS), the target mRNA inhibition amounted to 10%. On the same count and under the same terms, next, GCTTCTTCAATTTACA (sugars k3 d10 k3, PS): 45%.

Take GTGAAAACACTCATGG (sugars k3 d10 k3, PS): the target mRNA inhibition turned out to be 60%. Same read-out and setting: next, GTTGCATGGCTAATGA (sugars k3 d10 k3, PS): 61%. With GTAATGTAGGGATACA (sugars k3 d10 k3, PS), the target mRNA inhibition is 48%. Same read-out and setting: the value for CCTCAGGAAATGTCCA (sugars k3 d10 k3, PS) was 37%; that for GTTCATATCACAGAGC (sugars k3 d10 k3, PS) was 45%. Still for that read-out and setting: the value for CTACAGGCACGGCTTC (sugars k3 d10 k3, PS) was 52%.

As for GAGAAACGAGCCAGTG (sugars k3 d10 k3, PS), the target mRNA inhibition came out at 39%. Still for that read-out and setting: the value for CTGCAGGGTAATTTAG (sugars k3 d10 k3, PS) was 34%; that for AGGAACTGACCTAACT (sugars k3 d10 k3, PS) was 31%; that for TTCCAGCTTAGTCACC (sugars k3 d10 k3, PS) was 37%. Same read-out and setting: the value for ACCTGCTGGCAGTTCT (sugars k3 d10 k3, PS) was 61%; that for CTGCTCTGGCACAGTC (sugars k3 d10 k3, PS) was 83%.

On to GTATACTTAAGCAAGT (sugars k3 d10 k3, PS), for which the target mRNA inhibition is 42%. Same read-out and setting: next, GGTTACTAATTCCATA (sugars k3 d10 k3, PS): 56%. On the same count and under the same terms, next, GCTTTTTCAAACACTA (sugars k3 d10 k3, PS): 68%; CGCAAAACCCCTCAAG (sugars k3 d10 k3, PS): 19%.

For CCGTATCCCCGTATCA (sugars k3 d10 k3, PS), the target mRNA inhibition worked out at 35%. Same read-out and setting: the value for GGGACCCACGGACGGA (sugars k3 d10 k3, PS) was 9%; that for CTCGGCCGCCGCCCTC (sugars k3 d10 k3, PS) was 37%; that for AGCCAGAGGTTCGCTG (sugars k3 d10 k3, PS) was 25%. Same read-out and setting: next, TGGTAACAATACTGTA (sugars k3 d10 k3, PS): 65%. As for AAAGAGGGTCACAGGT (sugars k3 d10 k3, PS), the target mRNA inhibition was 34%.

Take CCCAAGCCTTGAAGAG (sugars k3 d10 k3, PS): the target mRNA inhibition was determined as 6%. Same read-out and setting: next, CCAAGATCGAGCGGTG (sugars k3 d10 k3, PS): 37%; AAACAGGAACTGACCT (sugars k3 d10 k3, PS): 20%; AAGAGGTGCGAGTACC (sugars k3 d10 k3, PS): 34%. Regarding ATCGAATCTGCCCAAA (sugars k3 d10 k3, PS), the target mRNA inhibition is 26%. Regarding CAGCAGGTTTTGAGAC (sugars k3 d10 k3, PS), the target mRNA inhibition was 20%. On to GTCTATGGGATTATAT (sugars k3 d10 k3, PS), for which the target mRNA inhibition is 21%.

As for TTCCATTGGAGGAGGG (sugars k3 d10 k3, PS), the target mRNA inhibition was 28%.

On to AGCTCATCTGCCAATC (sugars k3 d10 k3, PS), for which the target mRNA inhibition was 33%. The same measure, in the same setting: the value for TATCAGATACACACCC (sugars k3 d10 k3, PS) was 19%. Still for that read-out and setting: next, TTTTTAGTTCATACCC (sugars k3 d10 k3, PS): 41%; ACCTTTTTTGGCTCCC (sugars k4 d8 k4, PS): 19%.

In the case of ATATTAGAGACTGTAT (sugars k3 d10 k3, PS), the target mRNA inhibition amounted to 25%. Still for that read-out and setting: the value for TGTAGGGCGACTAACT (sugars k3 d10 k3, PS) was 21%; that for TCCTCAAAGTCATTGC (sugars k4 d8 k4, PS) was 10%; that for CTGTATTTATGCCCTC (sugars k3 d10 k3, PS) was 60%. Same read-out and setting: next, GAGTCCCCGGCTCCTC (sugars k3 d10 k3, PS): 25%. Take TAACACGGTGTTGACA (sugars k3 d10 k3, PS): the target mRNA inhibition is 35%.

TAGCAGAGGTTCTACG (sugars k3 d10 k3, PS): the target mRNA inhibition is 24%.

For the sequence ACAGAAGATCTCTACT (sugars k3 d10 k3, PS), the target mRNA inhibition was determined as 32%. Still for that read-out and setting: next, CACATAATCCAGTATC (sugars k3 d10 k3, PS): 43%.

On to TCCTATGCTGAACCCC (sugars k3 d10 k3, PS), for which the target mRNA inhibition is 36%.

For the sequence TATAGCACTCTCCTAT (sugars k3 d10 k3, PS), the target mRNA inhibition came out at 2%.

As to GGGAGATCCGGCAGCC (sugars k3 d10 k3, PS), the target mRNA inhibition was -10%.

Values taken from the OligoGym collection.
